Measured values as given in US9156853B2, “AKT inhibitor compounds for treatment of cancer” (ALMAC DISCOVERY LIMITED, priority 2012, dated 2015).
Where a name gives a salt, the structure may show the parent alone.

Columns and labels:
[1] = Plasma protein binding (fraction unbound, human plasma); type: in vitro ADME
Procedure: (§1) SelectScreen® data was determined at Invitrogen. Plasma protein binding and pharmacokinetic analyses were determined using standard protocols.

kinases other than AKT1 = experiment: SelectScreen kinase panel (Invitrogen); type: biochemical; details: for >=80% in Selectscreen (at 10 uM) other than AKT1: number of kinases other than AKT1 with >=80% at 10 uM
Procedure: as §1

[2] = Pharmacokinetic analysis, half-life in rat; type: in vivo; details: for half-life: rat, in vivo, read-out: T½ (rat) h
Procedure: as §1

AKT3 = target: T1, AKT3 (Homo sapiens, UniProt Q9Y243); experiment: AKT Kinase Assay (IMAP fluorescent polarisation), AKT3 isoform; type: biochemical; details: for IC50: activated AKT3, FAM Crosstide substrate; for potency against AKT3 compared with the comparator compound: compared with the non-hydroxylated Compound A, F or L
T1 construct: purchased SignalChem
T1 sequence (Q9Y243 whole entry, canonical isoform): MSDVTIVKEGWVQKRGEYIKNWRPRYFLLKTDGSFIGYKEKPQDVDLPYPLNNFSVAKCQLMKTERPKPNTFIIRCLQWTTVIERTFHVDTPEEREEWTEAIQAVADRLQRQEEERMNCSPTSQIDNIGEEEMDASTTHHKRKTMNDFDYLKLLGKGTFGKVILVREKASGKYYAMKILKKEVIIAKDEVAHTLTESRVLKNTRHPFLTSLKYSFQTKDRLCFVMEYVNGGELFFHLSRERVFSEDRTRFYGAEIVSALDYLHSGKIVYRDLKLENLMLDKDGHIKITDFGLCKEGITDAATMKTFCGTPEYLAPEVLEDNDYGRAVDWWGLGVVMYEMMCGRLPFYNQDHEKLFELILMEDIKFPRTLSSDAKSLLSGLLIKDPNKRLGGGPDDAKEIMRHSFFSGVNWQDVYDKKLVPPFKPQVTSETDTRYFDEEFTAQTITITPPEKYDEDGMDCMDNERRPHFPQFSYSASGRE
Procedure: (§2) Testing of the compounds was performed using an AKT Kinase Assay:
(§3) Activated AKT isoforms 1, 2 and 3 were assayed utilising a 5′ FAM Crosstide (Seq. GRPRTSSFAEG-OH). The extent of kinase phosphorylation was determined by fluorescent polarisation using IMAP progressive binding reagent, which introduces binding beads which allow the reagent to specifically bind to phosphate residues via covalent co-ordination complex bonds.
(§4) iMAP binding solution stops Crosstide/kinase interaction and specifically binds phosphorylated substrates. The degree of phosphorylation is determined by fluorescent polarisation (excitation 485 nm; emission 528 nm) or the reduction in speed of rotation of the excited substrate.
(§5) The following materials were used in the assay: • a) Activated AKT isoforms (SignalChem.) dissolved in Complete Reaction buffer at a predetermined concentration selected so that the assay was carried out in the linear range. • b) AKT substrate peptide: FAM Crosstide (R7110) Molecular Devices, diluted in complete reaction buffer. • c) iMAP Progressive Screening Express Kit (R8127) Molecular Devices • d) Complete Reaction Buffer containing 0.1% BSA, 10 mM Tris-HCl, 10 mM MgCl2, 0.05% NaN3 and 0.01% phosphate free BSA, 1 mM DTT • e) Progressive Binding Solution containing 75% Buffer A, 25% Buffer B and low volume Binding Reagent which contains the binding entity for the assay • f) ATP diluted in complete reaction buffer • g) Black polystyrene 384 well assay plates (Nunc). • h) Biotek Synergy 4 Hybrid Plate reader.
(§6) 5 μl of test compound was dissolved in DMSO (Sigma Aldrich) and serially diluted in complete reaction buffer to give a fourteen point half log dose response and plated into 384 well black plates. The compound was incubated at room temperature with activated AKT isoform (5 μl) at the predetermined concentration, for 45 min.
(§7) 2.5 μl of ATP solution mixed with 2.5 μl of AKT substrate peptide (FAM Crosstide (R7110) Molecular Devices) were dispensed into each well and the plate centrifuged at 1000 rpm for 20 seconds to ensure homogenous mixing of reagents. The reaction mix was incubated in the dark for 1 h at room temperature.
(§8) The kinase reaction was stopped by the addition of Progressive Binding Solution and the mixture allowed to equilibrate for 1 h in the dark, at room temperature.
(§9) The fluorescent polarisation generated in each well was determined using a […] Synergy 4 Hybrid plate reader. In brief, each reaction solution was excited at 485 nm with the emission measured at 528 nm in both the parallel and perpendicular pathway.
(§10) The polarisation value generated in each well was calculated by Gen5 software (Biotek) and the % inhibition of kinase activity compared to vehicle control was calculated via GraphPad Prism. IC50 values for each compound were calculated by non-linear regression analysis using Prism software.
(§11) All plates were internally controlled by two methods. Firstly, by calculating the signal:noise ratio; based on kinase polarisation without inhibitor and polarisation generated by complete reaction buffer in the absence of activated kinase. Secondly by determining IC50 values generated by known inhibitors of the AKT isoforms.
(§12) The data was analysed using GraphPad Prism, with IC50 values generated using non-linear regression of the data set.

AKT2 = target: T2, AKT2 (Homo sapiens, UniProt P31751); experiment: AKT Kinase Assay (IMAP fluorescent polarisation), AKT2 isoform; type: biochemical; details: for IC50: activated AKT2, FAM Crosstide substrate; for potency against AKT2 compared with the comparator compound: compared with the non-hydroxylated Compound A, F or L
T2 construct: purchased SignalChem
T2 sequence (P31751 whole entry, canonical isoform): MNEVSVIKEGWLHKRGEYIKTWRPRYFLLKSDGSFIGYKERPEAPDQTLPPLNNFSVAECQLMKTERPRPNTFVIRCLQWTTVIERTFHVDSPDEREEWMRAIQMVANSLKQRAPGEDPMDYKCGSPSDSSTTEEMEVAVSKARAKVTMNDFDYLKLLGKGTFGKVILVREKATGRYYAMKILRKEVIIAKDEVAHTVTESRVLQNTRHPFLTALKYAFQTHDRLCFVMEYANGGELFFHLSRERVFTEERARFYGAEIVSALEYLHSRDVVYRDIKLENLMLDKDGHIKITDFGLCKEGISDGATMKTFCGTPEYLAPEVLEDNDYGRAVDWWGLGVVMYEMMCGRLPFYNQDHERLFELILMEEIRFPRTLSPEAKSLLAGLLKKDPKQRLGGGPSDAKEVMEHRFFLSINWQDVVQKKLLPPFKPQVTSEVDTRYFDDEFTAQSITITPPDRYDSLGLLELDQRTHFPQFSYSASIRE
Procedure: as §2, §3, §4, §5, §6, §7, §8, §9, §10, §11, §12

AKT1 = target: T3, AKT1 (Homo sapiens, UniProt P31749); experiment: AKT Kinase Assay (IMAP fluorescent polarisation), AKT1 isoform; type: biochemical; details: for IC50: activated AKT1, FAM Crosstide substrate; for potency against AKT1 compared with the comparator compound: compared with the non-hydroxylated Compound A, F or L
T3 construct: purchased SignalChem
T3 sequence (P31749 whole entry, canonical isoform): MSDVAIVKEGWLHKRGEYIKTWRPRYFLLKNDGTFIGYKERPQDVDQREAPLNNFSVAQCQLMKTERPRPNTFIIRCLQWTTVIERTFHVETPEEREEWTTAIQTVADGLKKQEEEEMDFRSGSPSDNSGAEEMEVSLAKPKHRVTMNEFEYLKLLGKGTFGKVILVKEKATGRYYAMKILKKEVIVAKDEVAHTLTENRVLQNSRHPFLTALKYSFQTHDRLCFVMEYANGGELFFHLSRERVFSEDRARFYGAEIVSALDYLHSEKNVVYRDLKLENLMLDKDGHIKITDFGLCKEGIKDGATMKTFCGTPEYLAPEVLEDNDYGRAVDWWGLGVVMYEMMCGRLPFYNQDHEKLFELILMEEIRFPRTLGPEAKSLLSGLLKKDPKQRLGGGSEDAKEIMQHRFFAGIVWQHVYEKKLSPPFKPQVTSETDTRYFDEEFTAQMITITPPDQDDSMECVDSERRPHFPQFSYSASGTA
Procedure: as §2, §3, §4, §5, §6, §7, §8, §9, §10, §11, §12

[3] = tested on: pAKT (Ser473) in PC3 cells; experiment: Inhibition of pAKT in PC3 cells; type: cell-based; details: Homo sapiens, PC-3, 24 h incubation, read-out: inhibition of pAKT in PC3 cell lines, IC50
Procedure: Analysis of Compound Effects on AKT Signalling Pathways: Inhibition of pAKT in PC3 Cells
PC3 cells were seeded overnight in 96 well plates followed by serum starvation for 4 h. Increasing concentrations of AKT inhibitor, in complete medium (RPMI 1640), were added to the cells and incubated for a further 24 h.
The cells were fixed in paraformaldehyde, permeabilised and blocked in BSA, followed by incubation with pAKT (Ser473) and total AKT antibody overnight (R&D Systems). Secondary antibody mixture was added, followed by a combination of fluorescent substrates added for a final incubation.
Fluorescent intensities for each antibody were read at 540/600 nm and 360/450 nm respectively on a Synergy 4 plate reader. The percentage change in fluorescent intensity was plotted against log concentration of inhibitor; to generate IC50 values (GraphPad Prism).

fraction unbound [1] | >=80% in Selectscreen (at 10 uM) other than AKT1 (kinases other than AKT1) | half-life [2] | IC50 (AKT3) | IC50 (AKT2) | IC50 (AKT1) | unbound fraction (human plasma) compared with Compound A [1] | T1/2 in rodent compared with Compound A [2] | potency against AKT3 compared with the comparator compound (AKT3) | potency against AKT2 compared with the comparator compound (AKT2) | potency against AKT1 compared with the comparator compound (AKT1) | IC50 [3] | off-target kinase activity in the SelectScreen panel compared with Compound A (kinases other than AKT1; compared with compound A) | Compound
≤ 0.02 | * (>2 kinases) | > 1440 min | > 6 µM | 20 to 100 nM | > 1500 nM | – | – | – | – | – | – | – | NC1(c2ccc(-c3oc4ncn(CC(F)(F)F)c(=O)c4c3-c3ccccc3)cc2)CCC1 [Compound A, reference compound]
0.02 to 0.05 | ** (1-2 kinases) | ≤ 600 min | 1 to 6 µM | 20 to 100 nM | ≤ 300 nM | significantly higher unbound fraction | shorter T1/2 | improved potency | improved potency | improved potency | ≤ 500 nM | – | C[C@]1(O)C[C@@](N)(c2ccc(-c3sc4ncn(CC(F)(F)F)c(=O)c4c3-c3ccccc3)cc2)C1 [Compound 5, 6-(4-((1r,3r)-1-Amino-3-hydroxy-3-methylcyclobutyl)phenyl)-5-phenyl-3-(2,2,2-trifluoroethyl)thieno[2,3-d]pyrimidin-4(3H)-one.TFA]
≥ 0.05 | * (>2 kinases) | ≤ 600 min | 1 to 6 µM | ≤ 20 nM | 300 to 1500 nM | significantly higher unbound fraction | shorter T1/2 | improved potency | improved potency | improved potency | ≤ 500 nM | – | C[C@]1(O)C[C@](N)(c2ccc(-c3oc4ncn(CC(F)(F)F)c(=O)c4c3-c3ccccc3)cc2)C1 [Compound 1, 6-(4-((1s,3s)-1-Amino-3-hydroxy-3-methylcyclobutyl)phenyl)-5-phenyl-3-(2,2,2-trifluoroethyl)furo[2,3-d]pyrimidin-4(3H)-one.HCl]
– | ** (1-2 kinases) | – | ≤ 1 µM | ≤ 20 nM | ≤ 300 nM | – | – | improved potency | improved potency | improved potency | ≤ 500 nM | less off-target kinase activity | C[C@]1(O)C[C@@](N)(c2ccc(-c3oc4ncn(CC(F)(F)F)c(=O)c4c3-c3ccccc3)cc2)C1 [Compound 4, 6-(4-((1r,3r)-1-Amino-3-hydroxy-3-methylcyclobutyl)phenyl)-5-phenyl-3-(2,2,2-trifluoroethyl)furo[2,3-d]pyrimidin-4(3H)-one.HCl]
0.02 to 0.05 | *** (0 kinases) | ≤ 600 min | 1 to 6 µM | ≤ 20 nM | ≤ 300 nM | significantly higher unbound fraction | shorter T1/2 | improved potency | improved potency | improved potency | ≤ 500 nM | – | Cn1c(-c2ccc([C@]3(N)C[C@](C)(O)C3)cc2)c(-c2ccccc2)c2c(=O)n(CC(F)(F)F)cnc21 [Compound 6, 6-(4-((1r,3r)-1-Amino-3-hydroxy-3-methylcyclobutyl)phenyl)-7-methyl-5-phenyl-3-(2,2,2-trifluoroethyl)-3H-pyrrolo[2,3-d]pyrimidin-4(7H)-one.HCl]
– | – | – | 1 to 6 µM | ≤ 20 nM | 300 to 1500 nM | – | – | improved potency | improved potency | improved potency | ≤ 500 nM | – | Cn1c(-c2ccc([C@]3(N)C[C@@H](O)C3)cc2)c(-c2ccccc2)c2c(=O)n(CC(F)(F)F)cnc21 [Compound 7, 6-(4-((1s,3s)-1-Amino-3-hydroxycyclobutyl)phenyl)-7-methyl-5-phenyl-3-(2,2,2-trifluoroethyl)-3H-pyrrolo[2,3-d]pyrimidin-4(7H)-one.HCl]
– | – | – | > 6 µM | ≤ 20 nM | > 1500 nM | – | – | – | improved potency | – | ≤ 500 nM | – | N[C@]1(c2ccc(-c3oc4ncn(CC(F)(F)F)c(=O)c4c3-c3ccccc3)cc2)C[C@@H](O)C1 [Compound 2, 6-(4-((1r,3r)-1-Amino-3-hydroxycyclobutyl)phenyl)-5-phenyl-3-(2,2,2-trifluoroethyl)furo[2,3-d]pyrimidin-4(3H)-one. HCl]
